This experiment addresses PIK3CG (human) (UniProt P48736). The experiment is described as follows: Assessment of PIK3CG Kinase Activity.
Chain of PIK3CG (human) (P48736 whole entry, looked up): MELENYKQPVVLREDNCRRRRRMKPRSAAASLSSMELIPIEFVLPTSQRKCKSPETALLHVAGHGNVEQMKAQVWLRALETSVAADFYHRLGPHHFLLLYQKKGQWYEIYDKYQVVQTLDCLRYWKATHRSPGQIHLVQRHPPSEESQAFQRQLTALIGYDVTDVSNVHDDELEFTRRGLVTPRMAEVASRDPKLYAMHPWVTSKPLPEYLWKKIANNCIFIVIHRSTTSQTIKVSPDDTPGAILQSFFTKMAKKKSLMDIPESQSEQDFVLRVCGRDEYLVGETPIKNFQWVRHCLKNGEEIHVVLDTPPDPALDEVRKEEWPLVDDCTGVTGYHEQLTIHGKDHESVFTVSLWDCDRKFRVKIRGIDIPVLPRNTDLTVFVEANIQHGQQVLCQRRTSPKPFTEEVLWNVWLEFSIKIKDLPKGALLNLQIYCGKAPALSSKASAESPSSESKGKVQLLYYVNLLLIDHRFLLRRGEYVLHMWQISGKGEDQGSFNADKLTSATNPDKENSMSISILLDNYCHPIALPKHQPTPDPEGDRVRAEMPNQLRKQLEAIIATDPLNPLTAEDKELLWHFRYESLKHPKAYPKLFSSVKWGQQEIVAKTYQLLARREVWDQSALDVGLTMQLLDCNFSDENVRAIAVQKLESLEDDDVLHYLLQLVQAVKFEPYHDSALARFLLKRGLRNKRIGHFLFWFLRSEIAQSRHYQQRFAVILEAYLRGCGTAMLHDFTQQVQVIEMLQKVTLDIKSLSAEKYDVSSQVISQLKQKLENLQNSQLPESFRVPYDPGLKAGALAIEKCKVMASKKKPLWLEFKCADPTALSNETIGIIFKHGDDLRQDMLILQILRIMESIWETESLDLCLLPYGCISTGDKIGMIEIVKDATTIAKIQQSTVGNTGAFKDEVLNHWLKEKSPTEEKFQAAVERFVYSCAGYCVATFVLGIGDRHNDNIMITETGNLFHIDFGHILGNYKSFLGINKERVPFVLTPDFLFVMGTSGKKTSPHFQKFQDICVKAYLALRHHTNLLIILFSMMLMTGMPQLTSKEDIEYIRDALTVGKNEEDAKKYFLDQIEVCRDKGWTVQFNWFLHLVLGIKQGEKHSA
For `COc1cc2c(OCC3(C)CC3)c(C(=O)Nc3nn[nH]n3)sc2cc1F`, the concentration for half-maximal inhibition (IC50) turned out to be 0.014 µM. Turning to `COc1ccc2sc(C(=O)Nc3nnn[nH]3)c(SC(c3ccccc3)C(C)N(C)C(C)=O)c2c1F` (configuration not stated), the IC50 was determined as 20 µM.

Take `COc1cc2c(O[C@@H]3CCC[C@@H](C)C3)c(C(=O)Nc3nn[nH]n3)sc2cc1F`: the IC50 came to 0.035 µM. Compound `COc1cc2c(OC3CCN(C(=O)OC(C)(C)C)CC3)c(C(=O)Nc3nn[nH]n3)sc2cc1F` yielded an IC50 of 0.016 µM. In turn, `COc1ccc2sc(C(=O)Nc3nnn[nH]3)c(Sc3ccc(C4CCCCC4)cc3)c2c1F` had an IC50 of 0.505 µM. As for `COc1cc2c(SC3CCCCC3)c(C(=O)Nc3nnn[nH]3)sc2cc1F`, the IC50 amounted to 0.012 µM. The compound `COc1cc2c(O[C@@H]3CCC[C@H](C)C3)c(C(=O)Nc3nn[nH]n3)sc2cc1F` displayed an IC50 of 0.0038 µM. In turn, `COc1cc2c(Oc3ccccc3)c(C(=O)Nc3nn[nH]n3)sc2cc1F` gave a 50% inhibitory concentration (IC50) of 0.0245 µM. `COc1ccc2sc(C(=O)Nc3nnn[nH]3)c(Sc3cccc(C(F)(F)F)c3)c2c1F`: the concentration for half-maximal inhibition (IC50) was determined as 11 µM. For the compound `COc1ccc2c(SC3CCCCC3)c(C(=O)Nc3nnn[nH]3)sc2c1F`, the IC50 was 0.027 µM. On to `COc1cc2c(Sc3ccc(Cl)cc3)c(C(=O)Nc3nnn[nH]3)sc2cc1F`, for which the IC50 was found to be 0.0455 µM. Consider `COc1ccc2sc(C(=O)Nc3nnn[nH]3)c(Sc3ccc(CC(=O)O)cc3)c2c1F`, for which the IC50 amounted to 19.4 µM.
